Data taken from PMC7265341, “Quantifying CDK inhibitor selectivity in live cells” (Nature Communications, 2020).
Where “and” joins values, the source holds several entries; their conditions need not be identical. Equal entries are not always repeated.

Assays:
Format in all cases: binding
CDK2/cyclin A1 = CDK2/cyclin A1 (Homo sapiens, UniProt P24941); experiment: NanoBRET target engagement, CDK2-NanoLuc co-expressed with cyclin A1 in HEK-293; details: probe 5 0.5µM
CDK7 = CDK7 (Homo sapiens, UniProt P50613); experiment: Intracellular residence time by cellular washout, CDK7; details: for CDK7: Panel B
CDK7, sequence (P50613 whole entry): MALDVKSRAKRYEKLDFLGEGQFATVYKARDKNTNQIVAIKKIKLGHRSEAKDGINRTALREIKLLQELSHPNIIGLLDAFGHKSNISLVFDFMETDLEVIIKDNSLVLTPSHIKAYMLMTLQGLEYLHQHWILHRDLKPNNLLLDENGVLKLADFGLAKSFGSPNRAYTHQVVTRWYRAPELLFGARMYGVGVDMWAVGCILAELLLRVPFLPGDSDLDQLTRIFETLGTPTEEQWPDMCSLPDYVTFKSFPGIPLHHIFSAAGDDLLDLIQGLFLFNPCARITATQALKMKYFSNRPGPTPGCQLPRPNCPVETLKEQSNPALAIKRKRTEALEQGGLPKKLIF
Method: However, residence times for this and many of the other CDKi’s in our panel have not been reported in cell-free or cellular contexts. […] This condition was selected to ensure adequate target occupancy prior to compound washout. Residence time was then evaluated by a rapid compound washout procedure, followed by addition of energy transfer probe 1. Under these conditions, the rate of the energy transfer signal increase serves as a direct proxy for the loss of the target-CDKi interaction[18],[56],[57].
Residence time was qualitatively assessed via a cellular washout approach, where delayed energy probe association is used as an indirect measurement for the durability of target/compound engagement. […] After 2 h of incubation at 37 °C, the medium was aspirated from the cells and replaced with fresh OptiMEM containing NanoBRET NanoGlo Substrate and Extracellular NanoLuc Inhibitor. […] Occupancy values were plotted as a function of time.
Supplementary Figure 22. […] Residence […]
time was qualitatively assessed by cellular washout as described in the method details and compared to association of energy transfer probe in cells treated with DMSO vehicle. […]
engagement at CDK6 and kinetic selectivity for CDK6 compared to CDK2 and CDK7. BRET ratios were normalized between the maximum BRET value vs BRET value in the absence of tracer. Kinetic traces and individual points are mean of 3 independent experiments ± S.E.M (n = 3). Source data are provided as a […]

CDK6 = CDK6 (Homo sapiens, UniProt Q00534); experiment: Real-time analysis of engagement (kobs, IC50 vs time) in live cells, CDK6; details: real-time BRET, 25 °C; response to reviewers
CDK6, sequence (Q00534 whole entry): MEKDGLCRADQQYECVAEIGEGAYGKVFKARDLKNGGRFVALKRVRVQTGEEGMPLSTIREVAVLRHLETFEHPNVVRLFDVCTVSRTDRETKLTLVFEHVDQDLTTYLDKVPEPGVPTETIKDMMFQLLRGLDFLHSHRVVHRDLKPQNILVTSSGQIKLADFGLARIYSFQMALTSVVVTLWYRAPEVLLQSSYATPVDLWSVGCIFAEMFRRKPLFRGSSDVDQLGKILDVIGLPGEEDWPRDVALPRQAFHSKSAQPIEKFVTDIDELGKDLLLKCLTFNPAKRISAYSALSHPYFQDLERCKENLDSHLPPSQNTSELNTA
CDK6, sequence (P24385 whole entry partner): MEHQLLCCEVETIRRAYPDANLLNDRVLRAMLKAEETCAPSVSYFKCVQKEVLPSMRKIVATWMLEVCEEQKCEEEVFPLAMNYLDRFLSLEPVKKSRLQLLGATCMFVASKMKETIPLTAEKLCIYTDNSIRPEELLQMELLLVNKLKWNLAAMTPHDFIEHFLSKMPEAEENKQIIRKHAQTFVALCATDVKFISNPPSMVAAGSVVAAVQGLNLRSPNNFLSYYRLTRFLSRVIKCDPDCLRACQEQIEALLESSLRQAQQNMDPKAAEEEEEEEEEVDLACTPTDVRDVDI
Method: CDK2/Cyclin E1 complex was measured in the donor NanoBRET channel (using the standard 450 nm bandpass filter on the Glomax Discover plate reader). Ternary complex was measured in the presence […]
the acceptor NanoBRET channel (using the standard 600 nm longpass filter on the Glomax Discover plate reader). Total LgBiT expression level was determined in the presence of a saturating concentration […]
mg/mL digitonin (as a permeabilization agent). […]
respectively, at probe concentrations identical to those described for steady state analysis of target engagement. Cells were pre-equilibrated with energy transfer probe for 40 min prior to addition of […]
intervals at 25 °C (temperature reduced to avoid evaporation of cell culture medium). To quantify […]
vs time. Apparent association rate was also plotted as k obs vs [RGB286638], where kobs was determined using the one phase association equation (Supplementary Equation 2) in graphpad prism.
Y=Y0 + (Plateau-Y0)*(1-e-K*X) (2) where Y = mBRET ratio, X = time, and K = the observed rate constant ( kobs). Both analyses support […]
Generation of endogenously edited CDK-HiBiT cell lines and target engagement analysis at endogenous protein levels. HEK293 cells were edited to express HiBiT fused to the N -terminus of CDK9 or the C-terminus of CDK16, as described previously 3. For CDK9, the sequence of the guide RNA was […]

**Q.** Which “increase of CDK2 engagement potency with cyclin E1 compared with cyclin A1 co-expression” value (CDK2/cyclin A1) does the source give for `COCCN1CCN(Cc2ccc(-c3n[nH]c4c3C(=O)c3c(NC(=O)NN5CCOCC5)cccc3-4)cc2)CC1` [RGB286638] here?
**A.** Its value is ~2 orders of magnitude.

**Q.** What about the CDK7 (CDK7; Time (Min) 2.97013) of the same compound?
**A.** The CDK7 was 63.5317 and 37.2109 and 59.6726.

**Q.** And the CDK7 (CDK7; Time (Min) 5.97045)?
**A.** Its CDK7 is 70.1207 and 47.8912 and 70.0893.

**Q.** What about the CDK7 (CDK7; Time (Min) 8.97078) of the same compound?
**A.** The CDK7 was 76.2242 and 55.3742 and 82.1429.

**Q.** What about the CDK7 (CDK7; Time (Min) 11.9714) of the same compound?
**A.** The CDK7 was 80.0388 and 60.068 and 80.8036.

**Q.** And the CDK7 (CDK7; Time (Min) 14.9718)?
**A.** The CDK7 was 83.1599 and 63.8775 and 88.244.

**Q.** And the CDK7 (CDK7; Time (Min) 17.9723)?
**A.** The CDK7 was 84.339 and 67.0068 and 93.006.

**Q.** And the CDK7 (CDK7; Time (Min) 20.9723)?
**A.** Its CDK7 is 86.0036 and 69.5238 and 91.8155.

**Q.** And the CDK7 (CDK7; Time (Min) 23.9731)?
**A.** Its CDK7 is 87.5988 and 70.4762 and 91.0714.

**Q.** And the CDK7 (CDK7; Time (Min) 26.9737)?
**A.** The CDK7 was 87.252 and 72.2449 and 92.2619.

**Q.** And the CDK7 (CDK7; Time (Min) 29.9742)?
**A.** Its CDK7 is 89.6796 and 72.7211 and 93.4524.

**Q.** What about the CDK7 (CDK7; Time (Min) 32.9743) of the same compound?
**A.** The CDK7 was 74.1497.

**Q.** And the CDK7 (CDK7; Time (Min) 32.9743, listed as RGB-286638)?
**A.** Its CDK7 is 87.9456 and 99.1071.

**Q.** What about the CDK7 (CDK7; Time (Min) 35.9749) of the same compound?
**A.** Its CDK7 is 89.8183 and 75.5102 and 100.298.

**Q.** What about the CDK7 (CDK7; Time (Min) 38.9753) of the same compound?
**A.** The CDK7 was 90.3731 and 75.102 and 97.619.

**Q.** And the CDK7 (CDK7; Time (Min) 41.9753)?
**A.** The CDK7 was 91.4829.

**Q.** And the CDK7 (CDK7; Time (Min) 236.996)?
**A.** Its CDK7 is 85.5181 and 68.5714 and 62.6488.

**Q.** What about the CDK7 (CDK7; Time (Min) 239.996) of the same compound?
**A.** Its CDK7 is 81.0792 and 69.4558 and 75.1488.

**Q.** What about the CDK7 (CDK7; Time (Min) 242.996) of the same compound?
**A.** Its CDK7 is 82.6744 and 69.7959 and 76.3393.

**Q.** What about the CDK7 (CDK7; Time (Min) 245.996) of the same compound?
**A.** The CDK7 was 82.397 and 69.0476 and 68.4524.

**Q.** And the CDK7 (CDK7; Time (Min) 248.996)?
**A.** Its CDK7 is 81.4954 and 70.068 and 77.0833.

**Q.** And the CDK7 (CDK7; Time (Min) 251.996)?
**A.** Its CDK7 is 82.3276 and 68.6395 and 82.7381.

**Q.** What about the CDK7 (CDK7; Time (Min) 254.996) of the same compound?
**A.** Its CDK7 is 80.5243 and 67.551 and 74.1071.

**Q.** And the CDK7 (CDK7; Time (Min) 257.996)?
**A.** The CDK7 was 85.2407 and 70.4082 and 62.2024.

**Q.** And the CDK7 (CDK7; Time (Min) 260.996)?
**A.** Its CDK7 is 83.0212 and 68.0272 and 80.6548.

**Q.** What about the CDK7 (CDK7; Time (Min) 263.996) of the same compound?
**A.** The CDK7 was 83.8535 and 68.6395 and 70.6845.

**Q.** What about the CDK7 (CDK7; Time (Min) 266.996) of the same compound?
**A.** Its CDK7 is 68.0272.

**Q.** And the CDK7 (CDK7; Time (Min) 266.996, listed as RGB-286638)?
**A.** The CDK7 was 83.7842 and 91.369.

**Q.** And the CDK7 (CDK7; Time (Min) 269.996)?
**A.** The CDK7 was 81.2873 and 68.9116 and 72.9167.

**Q.** And the CDK7 (CDK7; Time (Min) 272.996)?
**A.** The CDK7 was 80.8711 and 70.3401 and 74.8512.

**Q.** What about the CDK7 (CDK7; Time (Min) 275.996) of the same compound?
**A.** Its CDK7 is 78.9985 and 67.0748 and 80.0595.

**Q.** And the CDK7 (CDK7; Time (Min) 278.996)?
**A.** Its CDK7 is 80.5243 and 67.8231 and 80.6548.

**Q.** What about the CDK7 (CDK7; Time (Min) 281.996) of the same compound?
**A.** Its CDK7 is 80.1776 and 69.4558 and 75.

**Q.** And the CDK7 (CDK7; Time (Min) 284.996)?
**A.** Its CDK7 is 78.513 and 68.5034 and 75.2976.

**Q.** What about the CDK7 (CDK7; Time (Min) 287.996) of the same compound?
**A.** Its CDK7 is 79.8308 and 68.2993 and 76.6369.

**Q.** What about the CDK7 (CDK7; Time (Min) 290.996) of the same compound?
**A.** Its CDK7 is 80.5243 and 69.932 and 91.2202.

**Q.** And the CDK7 (CDK7; Time (Min) 293.996)?
**A.** Its CDK7 is 78.9985 and 67.9592 and 82.2917.

**Q.** And the “CDK7 occupancy after 2 h of analysis following compound washout” value (CDK7; live cells, probe 1 at 1 µM)?
**A.** The value was “fully dissociated”.

**Q.** What about the “CDK6 off rate from kobs values” (CDK6) of the same compound?
**A.** Its value is greater than 300 min.
